Drawing on patent US20040209246A1, “Dual reporter/dye reduction methodology for evaluating antiviral and cytotoxicity of hepatitis C virus inhibitors” (Agouron Pharmaceuticals, Inc., priority 2003, published 2004), this text covers EC50, EC90 and CC50 for two compounds.

Data set [1] has as its system reporter-selectable HCV replicon BB7M4hRLuc in B6b Huh-7 cells. The data set can be described thus: HCV replicon hRLuc reporter antiviral assay, dual reporter cell line B6b. The conditions noted are these: hRLuc endpoint, three days incubation. Format: cell-based, Hepatitis C virus. How it is done: (§1) An HCV replicon reporter assay system can be developed to determine the specific antiviral activity of inhibitors in standard dose response assays. In such assays, the reporter-selectable containing Huh-7 cells are incubated in 96 wells containing serial dilutions of test inhibitors or no inhibitor. At a specified time after incubation, the activities of the viral-encoded reporter genes are measured in the cell lines using the appropriate reporter assay methodologies. Data from the reporter gene measurements can be expressed as the percent of reporter gene activity in inhibitor-treated cells relative to that of inhibitor-free cells. An analysis of the antiviral component of such data allows for the calculation of the fifty-percent effective concentration (EC50).
(§2) In another embodiment of the invention, the dual antiviral activity/cytotoxicity reporter assay system, in conjunction with recording cytotoxicity in the same wells by the dye reduction method, can be used to determine the specific antiviral activity of inhibitors in standard dose response assays using three endpoints. In such assays, target cells containing the reporter-selectable replicon in microtiter are incubated for a desired duration of time at 37° C. and 5% CO2 with plates containing serial dilutions of test inhibitors or no inhibitor. After the incubation period, the activities of the viral and target cell-encoded reporter genes, as well as cytotoxicity by the dye reduction method, are measured using the appropriate dual reporter assay methods subsequent to the measurement of cellular proliferation by dye reduction. Data from the reporter gene and cellular proliferation measurements can be expressed as the percent of reporter gene activity or optical density (OD) reading in inhibitor-treated cells relative to that of inhibitor-free cells. An analysis of the antiviral component of such data allows for the calculation of the fifty-percent effective concentration (EC50) or ninety-percent effective concentration (EC50) of an inhibitor. In addition, an analysis of the cytotoxicity component of the data can be used to calculate the 50% cytotoxicity concentration (CC50) of an inhibitor. The therapeutic index (TI), which is a measurement of the specific antiviral activity of an inhibitor, can then be calculated by dividing the cytotoxicity (CC50) by the antiviral activity (EC50).

Data set [2] deals with reporter-selectable HCV replicon BB7M4hRLuc in BB7 M4 hRLuc#10 Huh-7 cells. Briefly: HCV replicon hRLuc reporter antiviral assay, cell line #10. Format: cell-based, Hepatitis C virus. The conditions noted are these: cell line #10, hRLuc endpoint, three days incubation. How it is done:
as §1
as §2, with “An analysis of the antiviral component of such data allows for the calculation of the fifty-percent effective concentration (EC50) or ninety-percent effective concentration (EC50) of an inhibitor. In addition, an analysis of the cytotoxicity component of the data can be used to calculate the 50% cytotoxicity concentration (CC50) of an inhibitor.” left out

Data set [3] deals with B6b dual reporter replicon cell line (Huh-7). The data set can be described thus: XTT dye reduction cytotoxicity, cell line B6b. The conditions noted are these: read-out: CC50 (XTT), three days incubation. The source says:
(§3) In the current invention, two end points will be used to measure CC50 values. The first is XTT dye reduction methodology and the second is the use of the second reporter gene integrated in the nucleus of cells carrying the reporter-selectable HCV replicons. In case of both methodologies, a CC50 value will be generated from the same wells from which an EC50 value was obtained. The CC50 value would be generated by calculating % cytotoxicity of the inhibitor/compound treated wells compared to the no inhibitor/compound well resulting in generation of a dose dependent curve to obtain the value that was responsible for the death of 50% of the cells.
(§4) Cell line BB7 M4 hRLuc#10 was grown in DMEM without phenol red (catalog # 1053-028) at 10% FBS with 4 mM L-glutamine, 1×Pen-step, 1×non-essential amino acids, and 200 μg/ml G418 (all from Gibco BRL/Invitrogen). Line B6b was grown in the same media with the addition of 6 μg/ml Blasticidin (ICN Biomedicals). Experiments in these replicon lines were carried out in 96-well black wall, clear-bottom plates (Costar®; Corning Incorporated). Cells were seeded as diagrammed in the figure below at a density of 2×10^4/well in 100 μl DMEM (described above) without G418 or Blasticidin. […]
(§5) Cell line BB7 M4 hRLuc #10 contained the selectable reporter replicon BB7 M4-hRLuc, which served as an anti-viral marker, but cytotoxicity had to be measured by XTT. […]

Data set [4] concerns BB7 M4 hRLuc#10 replicon cell line (Huh-7). The data set can be described thus: XTT dye reduction cytotoxicity, cell line #10. The note with it: read-out: CC50 (XTT); cell line #10, XTT dye reduction, three days incubation.
Description: as §3, §4, §5

The subject of data set [5] is B6b dual reporter replicon cell line (Huh-7). The note with it: read-out: CC50 (FLuc), three days incubation.
Description: as §3, §4, §5

Several values for one entry are separate records, joined by “and”; a condition that tells them apart may be missing. Identical values can stand only once. Like-named read-outs stand apart in the source and are kept apart here.

Take `OC[C@H]1O[C@@H](n2cnc3cc(Cl)c(Cl)cc32)[C@H](O)[C@@H]1O` [DRB, 5,6-dichlorobenzimidazole riboside]: the EC50 in data set [1] (read-out: EC50) was 34.1 µM and 53.7 µM; in data set [2] (read-out: EC50), 21.5 µM and 33.2 µM. In addition, the EC90 was 43.5 µM and 55 µM in data set [1] (read-out: EC90); 50.2 µM and 58 µM in data set [2]. Also, the 50% cytotoxic concentration (CC50) was 48.7 µM and 40.4 µM in data set [3]; 53.6 µM and 48.7 µM in data set [4]; 85.1 µM and 60.7 µM in data set [5].

With interferon alpha [IFN], in data set [1], the EC50 is 0.39 IU/ml and 0.43 IU/ml; the EC90 is 2.1 IU/ml and 2.6 IU/ml. The EC50 in data set [2] was 0.38 IU/ml and 0.67 IU/ml.
